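A five-concentration, 48-hour dose response in 96-well plates underlies each endpoint, interpolated linearly between surrounding concentrations. GI50: concentration for 50% inhibition of growth. TGI marks complete inhibition of growth.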
Experiments:
Test in all cases: NCI tumour cell line growth inhibition, 48 h; in the data active means GI50 below about 0.43 µM; inactive means the rest
HCT-15 colon = tested on: HCT-15 colon
MALME-3M melanoma = tested on: MALME-3M melanoma
SW-620 colon = tested on: SW-620 colon
HOP-92 NSCLC = tested on: HOP-92 NSCLC
NCI-H226 lung = tested on: NCI-H226 lung
COLO 205 colon = tested on: COLO 205 colon
RXF 393 renal = tested on: RXF 393 renal
OVCAR-3 ovarian = tested on: OVCAR-3 ovarian
UACC-62 melanoma = tested on: UACC-62 melanoma

O=C1C(=c2ccc(=C3C(=O)c4ccc([N+](=O)[O-])cc4[N+]3=O)cc2)N([O-])c2cc([N+](=O)[O-])ccc21
> 100 µM: TGI (HCT-15 colon) | TGI (MALME-3M melanoma) | TGI (SW-620 colon) | TGI (HOP-92 NSCLC) | TGI (NCI-H226 lung) | TGI (COLO 205 colon) | TGI (RXF 393 renal) | TGI (OVCAR-3 ovarian)
inactive: GI50 (HCT-15 colon) > 100 µM | GI50 (MALME-3M melanoma) > 100 µM | GI50 (SW-620 colon) > 100 µM | GI50 (HOP-92 NSCLC) > 100 µM | GI50 (NCI-H226 lung) > 100 µM | GI50 (COLO 205 colon) > 100 µM | GI50 (RXF 393 renal) > 100 µM | GI50 (OVCAR-3 ovarian) > 100 µM

NC1N=Nc2ccccc21 (configuration not stated)
> 100 µM: TGI (HCT-15 colon) | TGI (MALME-3M melanoma) | TGI (SW-620 colon) | TGI (HOP-92 NSCLC) | TGI (NCI-H226 lung) | TGI (COLO 205 colon) | TGI (RXF 393 renal) | TGI (OVCAR-3 ovarian)

COc1cccc(C=O)c1C(=O)c1cc(O)ccc1O
45.5 µM: TGI (OVCAR-3 ovarian)
37.5 µM: TGI (MALME-3M melanoma)
32.2 µM: TGI (RXF 393 renal)
> 100 µM: TGI (UACC-62 melanoma) | TGI (NCI-H226 lung)
34.1 µM: TGI (COLO 205 colon)
33.2 µM: TGI (SW-620 colon)
41.3 µM: TGI (HCT-15 colon)
33.1 µM: TGI (HOP-92 NSCLC)

C/C(CCn1[nH]c(=O)ccc1=O)=N\NC(=O)C(N)=O
> 100 µM: TGI (HCT-15 colon) | TGI (UACC-62 melanoma) | TGI (MALME-3M melanoma) | TGI (SW-620 colon) | TGI (HOP-92 NSCLC) | TGI (NCI-H226 lung) | TGI (COLO 205 colon) | TGI (RXF 393 renal) | TGI (OVCAR-3 ovarian)

O=C(CCC(=O)Nc1ccc(Cl)c(Cl)c1)CC(=O)c1ccc2ccccc2c1
> 100 µM: TGI (HCT-15 colon) | TGI (UACC-62 melanoma) | TGI (MALME-3M melanoma) | TGI (SW-620 colon) | TGI (HOP-92 NSCLC) | TGI (NCI-H226 lung) | TGI (RXF 393 renal) | TGI (OVCAR-3 ovarian)

O=C(C=Nc1ccccc1C(=O)[O-])c1cccs1.O=C(C=Nc1ccccc1C(=O)[O-])c1cccs1.[Ni+2]
> 100 µM: TGI (HCT-15 colon) | TGI (UACC-62 melanoma) | TGI (MALME-3M melanoma) | TGI (SW-620 colon) | TGI (HOP-92 NSCLC) | TGI (COLO 205 colon) | TGI (OVCAR-3 ovarian)

O=[N+]([O-])c1cc(-c2nc(=S)[nH][nH]2)ccc1O
35.9 µM: TGI (COLO 205 colon)
31 µM: TGI (HCT-15 colon)
> 100 µM: TGI (UACC-62 melanoma) | TGI (MALME-3M melanoma) | TGI (RXF 393 renal)
18.4 µM: TGI (SW-620 colon)

O=C(O)CN(c1ccccc1)S(=O)(=O)c1cccc([N+](=O)[O-])c1
> 100 µM: TGI (HCT-15 colon) | TGI (UACC-62 melanoma) | TGI (MALME-3M melanoma) | TGI (SW-620 colon) | TGI (HOP-92 NSCLC) | TGI (NCI-H226 lung) | TGI (COLO 205 colon) | TGI (RXF 393 renal) | TGI (OVCAR-3 ovarian)

Nc1nc(N)c(CCCCc2ccccc2)c(C=O)n1
45.4 µM: TGI (HCT-15 colon)
30.8 µM: TGI (UACC-62 melanoma)
36.3 µM: TGI (MALME-3M melanoma)
30.9 µM: TGI (SW-620 colon)
53.7 µM: TGI (NCI-H226 lung)
32.6 µM: TGI (OVCAR-3 ovarian)
> 100 µM: TGI (COLO 205 colon)

COC(=O)[C@H]1COC(=S)N1C(=O)[C@@H](C)[C@H](O)C(C)C
> 100 µM: TGI (HCT-15 colon) | TGI (UACC-62 melanoma) | TGI (MALME-3M melanoma) | TGI (SW-620 colon) | TGI (HOP-92 NSCLC) | TGI (NCI-H226 lung) | TGI (COLO 205 colon) | TGI (RXF 393 renal) | TGI (OVCAR-3 ovarian)

COc1cc2c(cc1OC)C(C#N)N(C(=O)c1ccccc1)C=C2OC(=O)c1ccccc1 (configuration not stated)
47.4 µM: TGI (OVCAR-3 ovarian)
77 µM: TGI (HOP-92 NSCLC)
50.2 µM: TGI (MALME-3M melanoma)
45 µM: TGI (UACC-62 melanoma)
51.4 µM: TGI (NCI-H226 lung)
> 100 µM: TGI (HCT-15 colon) | TGI (SW-620 colon) | TGI (COLO 205 colon)

COc1ccc2c(c1)[n+]([O-])c(-c1cccc(Cl)c1)c(N)[n+]2[O-]
30.3 µM: TGI (COLO 205 colon)
> 100 µM: TGI (MALME-3M melanoma) | TGI (SW-620 colon) | TGI (HOP-92 NSCLC) | TGI (NCI-H226 lung) | TGI (RXF 393 renal) | TGI (OVCAR-3 ovarian)

Cc1cc(=O)[nH]c(CNC(=O)c2ccc3ccccc3c2)n1
> 100 µM: TGI (HCT-15 colon) | TGI (UACC-62 melanoma) | TGI (MALME-3M melanoma) | TGI (SW-620 colon) | TGI (HOP-92 NSCLC) | TGI (NCI-H226 lung) | TGI (COLO 205 colon) | TGI (RXF 393 renal) | TGI (OVCAR-3 ovarian)

O=C(COc1ccccc1Cl)N1N=C(c2ccccc2)CC1(O)c1ccccc1 (configuration not stated)
42.3 µM: TGI (HOP-92 NSCLC)
31.7 µM: TGI (MALME-3M melanoma)
79.1 µM: TGI (SW-620 colon)
33.5 µM: TGI (UACC-62 melanoma)
33.9 µM: TGI (COLO 205 colon)
33.6 µM: TGI (HCT-15 colon) | TGI (OVCAR-3 ovarian)
35.9 µM: TGI (NCI-H226 lung)

N#CCCN(CCC#N)c1ccc(/C=C(/NC(=O)c2cc([N+](=O)[O-])ccc2Cl)C(=O)NN)cc1
> 100 µM: TGI (HCT-15 colon) | TGI (UACC-62 melanoma) | TGI (MALME-3M melanoma) | TGI (SW-620 colon) | TGI (NCI-H226 lung) | TGI (COLO 205 colon) | TGI (RXF 393 renal) | TGI (OVCAR-3 ovarian)

N/C=N/S(=O)(=O)c1ccc(NC(=O)COC(=O)c2cccc3c(=O)c4ccccc4[nH]c23)cc1
> 100 µM: TGI (HCT-15 colon) | TGI (UACC-62 melanoma) | TGI (MALME-3M melanoma) | TGI (SW-620 colon) | TGI (NCI-H226 lung) | TGI (COLO 205 colon) | TGI (RXF 393 renal) | TGI (OVCAR-3 ovarian)

c1ccc2c(c1)SC(=C1Sc3ccccc3S1)S2
> 100 µM: TGI (HCT-15 colon) | TGI (UACC-62 melanoma) | TGI (MALME-3M melanoma) | TGI (SW-620 colon) | TGI (HOP-92 NSCLC) | TGI (COLO 205 colon) | TGI (RXF 393 renal) | TGI (OVCAR-3 ovarian)

CC1(C)NC(=O)N(CCCCCCN2C(=O)NC(C)(C)C2=O)C1=O
> 100 µM: TGI (HCT-15 colon) | TGI (UACC-62 melanoma) | TGI (MALME-3M melanoma) | TGI (SW-620 colon) | TGI (HOP-92 NSCLC) | TGI (NCI-H226 lung) | TGI (COLO 205 colon) | TGI (RXF 393 renal)

[O-]/N=[N+](/[O-])C1CCCCC1=[N+]1CCOCC1 (configuration not stated)
> 100 µM: TGI (UACC-62 melanoma) | TGI (MALME-3M melanoma) | TGI (SW-620 colon) | TGI (HOP-92 NSCLC) | TGI (NCI-H226 lung) | TGI (COLO 205 colon) | TGI (OVCAR-3 ovarian)

OCC1OC2c3ccccc3COC2C1OCc1ccccc1 (configuration not stated)
> 100 µM: TGI (HCT-15 colon) | TGI (UACC-62 melanoma) | TGI (MALME-3M melanoma) | TGI (SW-620 colon) | TGI (NCI-H226 lung) | TGI (COLO 205 colon) | TGI (RXF 393 renal) | TGI (OVCAR-3 ovarian)
